# Measurements published in patent US10456414B2, “Methods for treating HCV” (priority 2011, dated 2019).
# Several values for one entry are separate records, joined by “and”; a condition that tells them apart may be missing. Identical values can stand only once. Like-named read-outs stand apart in the source and are kept apart here. Marks after values point to notes of the source that are not given here.
# Experiments:
# HCV genotype 1a replicon [1] = experiment: HCV genotype 1a replicon assay, EC50 (Biological Example 3); type: cell-based; conditions: 3 days
# [2] = system: Huh-7 cells carrying a HCV genotype 1a replicon; experiment: HCV genotype 1a replicon assay, CC50 by calcein AM (Biological Example 3); type: cell-based; conditions: genotype 1a replicon cells, 3 days
# Method: The CC50 assay was performed first.
# [3] = system: 1b Huh-luc replicon cells; experiment: Antiviral combination studies with Compound 5, MacSynergy II; type: cell-based, HCV; conditions: for Antagonism Volume / Synergy Volume: in combination with Compound 5, mean ± standard deviation; for Interaction: in combination with Compound 5
# Method: Combination data were analyzed based on the Bliss Independence model using MacSynergy II software. Results of the combination assays were expressed as mean synergy and antagonism volumes (nM^2) calculated at 95% confidence from two independent experiments performed in triplicate.
# [4] = Drug-drug interactions of co-administered compounds (exposure); type: in vivo
# Method: With respect to Compounds 9 and 10, or pharmaceutically acceptable salts thereof, the composition may comprise 10 mg to 1000 mg per day (according to US 2010/0298257). With respect to Compound 11, or pharmaceutically acceptable salts thereof, the composition may comprise 1 mg to 1000 mg per day (according to US 2010/0081628).
# genotype 1b replicon RNA = experiment: Replicon RNA suppression, 6 day assay, QRT-PCR
# [5] = system: Genotype 1 b replicon cells; experiment: Compound combination replicon cure assay, colony formation; conditions: 6 days treatment at the same concentrations, then G418 for 14 days
# HCV genotype 1a replicon [6] = experiment: Antiviral combination studies with Compound 4, MacSynergy II; conditions: for Antagonism Volume / Synergy Volume: in combination with Compound 4, mean ± standard deviation; for Interaction: in combination with Compound 4
# [7] = system: HCV 1b replicon system (Huh-luc); experiment: Antiviral combination studies with Compound 6, MacSynergy II; conditions: for Antagonism Volume / Synergy Volume: in combination with Compound 6, mean ± standard deviation; for Interaction: in combination with Compound 6
# [8] = system: Huh-7 cells carrying a HCV genotype 1a replicon; experiment: Cytotoxicity combination studies with Compound 4, MacSynergy II; conditions: for Antagonism Volume (cytotoxicity) / Synergy Volume (cytotoxicity): in combination with Compound 4, mean ± standard deviation
# [9] = HCV genotype 1a replicon assay, CC50 by calcein AM (Biological Example 8); conditions: human, Huh-7 cells carrying an HCV genotype 1a replicon
# [10] = system: Huh-7 cells carrying an HCV genotype 1a replicon
# HCV genotype 1a replicon [11] = experiment: HCV genotype 1a replicon assay, EC50 (Biological Example 8); conditions: Hepatitis C virus, 72 h
# HCV genotype 1a replicon [12] = experiment: Antiviral combination studies with Compound 10, MacSynergy II; conditions: in combination with Compound 10
# GT1b wild-type replicon = experiment: microbe, parasite or virus in culture; type: cell-based, HCV; conditions: Hepatitis C virus, 72 h, 3 days
# [13] = system: GT1b NS5B S282T mutant replicon; experiment: microbe, parasite or virus in culture; type: cell-based, HCV; conditions: Hepatitis C virus, GT1B, 72 h, read-out: EC50 S282T
# GT2a wild-type replicon = experiment: microbe, parasite or virus in culture; type: cell-based, HCV; conditions: Hepatitis C virus, 72 h, 3 days
# [14] = system: GT2a NS5B S282T mutant replicon; experiment: microbe, parasite or virus in culture; type: cell-based, HCV; conditions: Hepatitis C virus, GT2A, 72 h, read-out: EC50 S282T
# [15] = system: GT2b wild-type chimeric replicon (2b NS5B in GT1b backbone); experiment: microbe, parasite or virus in culture; type: cell-based, HCV; conditions: Hepatitis C virus, 72 h, read-out: EC50 WT
# [16] = system: GT2b NS5B S282T mutant chimeric replicon; experiment: microbe, parasite or virus in culture; type: cell-based, HCV; conditions: Hepatitis C virus, GT2B, 72 h, read-out: EC50 S282T
# [17] = system: GT3a wild-type chimeric replicon (3a NS5B in GT1b backbone); experiment: microbe, parasite or virus in culture; type: cell-based, HCV; conditions: Hepatitis C virus, 72 h, read-out: EC50 WT
# [18] = system: GT3a NS5B S282T mutant chimeric replicon; experiment: microbe, parasite or virus in culture; type: cell-based, HCV; conditions: Hepatitis C virus, GT3A, 72 h, read-out: EC50 S282T
# [19] = system: GT4a wild-type chimeric replicon (4a NS5B in GT1b backbone); experiment: microbe, parasite or virus in culture; type: cell-based, HCV; conditions: Hepatitis C virus, 72 h, read-out: EC50 WT
# [20] = system: GT4a NS5B S282T mutant chimeric replicon; experiment: microbe, parasite or virus in culture; type: cell-based, HCV; conditions: Hepatitis C virus, GT4A, 72 h, read-out: EC50 S282T
# [21] = human, dose of 800 mg/day; cited from earlier work
# [22] = Hepatitis C virus, 72 h, average ± standard deviation, read-out: EC50
# [23] = single compound at the listed concentration, 6 days, relative to DMSO control (Table XIV)
Compound,EC50 (HCV genotype 1a replicon [1]; [22]),CC50 ([2]; read-out: CC50),Antagonism Volume [3],Synergy Volume [3],Antagonism Volume (HCV genotype 1a replicon [6]),Synergy Volume (HCV genotype 1a replicon [6]),Antagonism Volume [7],Synergy Volume [7],Interaction (cytotoxicity) ([8]; in combination with Compound 4),Antagonism Volume (cytotoxicity) [8],Synergy Volume (cytotoxicity) [8],CC50 at 3 days [9],Interaction [7],further results
"Fc1ccccc1-c1nc2ccn(Cc3ccc(-c4ccc(C(F)(F)F)cc4C(F)(F)F)nn3)cc-2n1 [Compound 1, 5-((6-(2,4-bis(trifluoromethyl)phenyl)pyridazin-3-yl)methyl)-2-(2-fluorophenyl)-5H-imidazo[4,5-c]pyridine]",19 ± 8 nM,> 44400 nM,0 ± 0 nM^2,70 ± 26 nM^2,−1 ± 2 nM^2%,34 ± 26 nM^2%,−17 ± 0.7 nM^2,34 nM^2 and 34 ± 9.9 nM^2,Additivity (Additivity: ≤25 and >−25 nM^2%),0 ± 1 nM^2%,13 ± 11 nM^2%,> 44400 nM,–,increase of exposure of Compound 1 by Compound 2 ([4]; co-administered with Compound 2): 2-3 ×; effect on drug metabolizing systems ([4]; in vivo): does not appear that Compound 1 affects drug metabolizing systems; Replicon RNA log drop (genotype 1b replicon RNA): −1.0 log; Replicon RNA log drop (genotype 1b replicon RNA; [23]): −1.0 log; Uncured colony number [5]: 657
"COc1ccc2c(O[C@@H]3C[C@H]4C(=O)N[C@]5(P(=O)(O)Cc6c(F)cccc6F)C[C@H]5CCCCCCC[C@H](NC(=O)OC5CCCC5)C(=O)N4C3)cc(-c3csc(NC(C)C)n3)nc2c1Cl [Compound 2, (2R,6S,13aR,14aS,16aS)-2-(8-chloro-2-(2-(isopropylamino)thiazol-4-yl)-7-methoxyquinolin-4-yloxy)-6-(cyclopentyloxycarbonylamino)-5,16-dioxooctadecahydrocyclopropa[e]pyrrolo[1,2-a][1,4]diazacyclopentadecin-14a-yl(2,6-diflurobenzyl)phosphinic acid]",496 ± 135 nM,> 22200 nM,−7 ± 7 nM^2,22 ± 12 nM^2,−2 ± 3 nM^2%,22 ± 14 nM^2%,−0.7 ± 0.7 nM^2,52 nM^2 and 52 ± 5.1 nM^2,Additivity (Additivity: ≤25 and >−25 nM^2%),0 ± 0 nM^2%,17 ± 14 nM^2%,–,Moderate Synergy,Interaction [3]: Additive; Interaction (HCV genotype 1a replicon [6]): Additivity (Additivity: ≤25 and >−25 nM^2%)
CC(C)OC(=O)[C@H](C)N[P@](=O)(OC[C@H]1O[C@@](C#N)(c2ccc3c(N)ncnn23)[C@](C)(O)[C@@H]1OC(=O)C(C)C)Oc1ccccc1 [Compound 4],201 ± 74 nM,–,−1 ± 3 nM^2,26 ± 28 nM^2,–,–,–,–,–,–,–,–,–,"Compound concentration able to induce replicon RNA 1-1.5 log drop in a 6 day assay (genotype 1b replicon RNA; genotype 1b replicon cells, 6 days): 1000 nM; Replicon RNA log drop (genotype 1b replicon RNA; [23]): −1.2 log; Uncured colony number [5]: 1054; Interaction (cytotoxicity) ([8]; in combination with Ribavirin (Table IX)): Additivity (Additivity: ≤25 and >−25 nM^2%)"
"CC1=CC[C@H](C(=O)N(c2cc(C#CC(C)(C)C)sc2C(=O)O)[C@H]2CC[C@](O)(CO[C@H]3CCOC3)CC2)CC1 [Compound 5, 5-(3,3-dimethylbut-1-yn-1-yl)-3-[(cis-4-hydroxy-4-{[(3S)-tetrahydrofuran-3-yloxy]methyl}cyclohexyl){[(1R)-4-methylcyclohex-3-en-1-yl]carbonyl}amino]thiophene-2-carboxylic acid]",15 ± 2.4 nM,> 44400 nM,–,–,−1 ± 3 nM^2%,26 ± 28 nM^2%,–,–,Additivity (Additivity: ≤25 and >−25 nM^2%),−10 ± 7 nM^2%,15 ± 8 nM^2%,> 44400 nM,–,Cytotoxicity at Highest Concentration of Compound Combinations (% inhibition on cell growth) ([10]; with 320 nM Compound 10 and the highest concentration of the listed compound): 4.3 ± 2.9%; EC50 (HCV genotype 1a replicon [11]): 14 nM; Interaction (HCV genotype 1a replicon [12]): Additive
CC(C)C(=O)OCC1O[C@@H](n2ccc(N)nc2=O)[C@](C)(F)[C@@H]1OC(=O)C(C)C (stereo partly shown) [Compound 7],–,–,–,–,–,–,−0.2 ± 0.1 nM^2,51 nM^2 and 51 ± 7.8 nM^2,–,–,–,–,Moderate Synergy,–
"NC(=O)c1ncn([C@@H]2O[C@H](CO)[C@@H](O)[C@H]2O)n1 [Ribavirin, 1-β-D-ribofuranosyl-1H-1,2,4-Triazole-3-carboxamide, reference compound]",36500 ± 17500 nM,> 88800 nM,−12 ± 9 nM^2,12 ± 8 nM^2,−43 nM^2% and −43 ± 20 nM^2%,1 ± 1 nM^2%,−0.5 ± 0.1 nM^2,61 nM^2 and 61 ± 0.5 nM^2,–,–,–,> 88800 nM,Moderate Synergy,"Interaction [3]: Additive; EC50 (GT1b wild-type replicon): 6.6 nM; EC50 [13]: 1.6 nM; EC50 (GT2a wild-type replicon): 8.3 nM; EC50 [14]: 0.6 nM; EC50 [15]: 2.6 nM; EC50 [16]: 0.6 nM; EC50 [17]: 6.7 nM; EC50 [18]: 1 nM; EC50 [19]: 6.2 nM; EC50 [20]: 0.6 nM; cell viability ([10]; combined with Compound 10, highest combined concentrations tested): greater than 85%; steady-state plasma concentration [21]: 6 to 11 µM; EC50 (HCV genotype 1a replicon [11]): 33600 nM; Interaction (HCV genotype 1a replicon [12]): Minor"
IFN-α,–,–,–,–,0 ± 0 nM^2%,12 ± 6 nM^2%,0.0 ± 0.0 nM^2,32 nM^2 and 32 ± 1.4 nM^2,Additivity (Additivity: ≤25 and >−25 nM^2%),−7 ± 13 nM^2%,8 ± 12 nM^2%,–,Minor Synergy,EC50 (HCV genotype 1a replicon [1]; IFN-α in Units per milliliter): 1.4 ± 0.3^b U/mL; CC50 ([2]; IFN-α in Units per milliliter): >50^b U/mL; Interaction (HCV genotype 1a replicon [6]): Additivity (Additivity: ≤25 and >−25 nM^2%)
